From ChEMBL document CHEMBL3885881, “DrugMatrix”

Species: Rattus norvegicus
Test: DrugMatrix - Regimen: Daily Repeat
Format: toxicity, organism-based, Sprague-Dawley
Design: regimen Daily Repeat, gender Male, age 6-8 weeks
Details: in vivo, iv, vehicle 100 % SALINE; for ABSOLUTE BASOPHIL / ABSOLUTE EOSINOPHIL / ABSOLUTE LYMPHOCYTE / ABSOLUTE MONOCYTE / ABSOLUTE SEGMENTED NEUTROPHIL / BASOPHIL / EOSINOPHIL / ERYTHROCYTE COUNT / HEMATOCRIT / HEMOGLOBIN / LEUKOCYTE COUNT / LYMPHOCYTE / MEAN CORPUSCULAR HEMOGLOBIN / MEAN CORPUSCULAR HEMOGLOBIN CONCENTRATION / MEAN CORPUSCULAR VOLUME / MONOCYTE / NEUTROPHIL / NUCLEATED RED BLOOD CELLS / PLATELET COUNT: tissue Blood; for ALANINE AMINOTRANSFERASE / ALBUMIN / ALKALINE PHOSPHATASE / ASPARTATE AMINOTRANSFERASE / BLOOD UREA NITROGEN / CARBON DIOXIDE / CHLORIDE / CHOLESTEROL / CREATINE PHOSPHOKINASE / CREATININE / GLUCOSE / LACTATE DEHYDROGENASE / LIPASE / PHOSPHORUS / POTASSIUM / SODIUM / TOTAL BILIRUBIN / TOTAL PROTEIN / URIC ACID: tissue Plasma
[1] = 11 mg/kg, 72 h, dose level High, time 3 day
[2] = 11 mg/kg, 120 h, dose level High, time 5 day
[3] = […], 72 h, dose 2.6 mg/Kg, dose level Low, time 3 day
[4] = […], 120 h, dose 2.6 mg/Kg, dose level Low, time 5 day

## Nc1ccn([C@@H]2O[C@H](CO)[C@@H](O)C2(F)F)c(=O)n1 [GEMCITABINE]
[1]
  ABSOLUTE BASOPHIL: 0 CELLS/uL
  ABSOLUTE EOSINOPHIL: 0 CELLS/uL
  ABSOLUTE LYMPHOCYTE: 4311.33 CELLS/uL
  ABSOLUTE MONOCYTE: 21.67 CELLS/uL
  ABSOLUTE SEGMENTED NEUTROPHIL: 200.33 CELLS/uL
  BASOPHIL: 0%
  EOSINOPHIL: 0%
  ERYTHROCYTE COUNT: 5.19 x10E6/uL
  HEMATOCRIT: 33.27%
  HEMOGLOBIN: 13.03 G/DL
  LEUKOCYTE COUNT: 4.53 x10E3/uL
  LYMPHOCYTE: 95%
  MEAN CORPUSCULAR HEMOGLOBIN: 25.07 pg
  MEAN CORPUSCULAR HEMOGLOBIN CONCENTRATION: 39.2 G/DL
  MEAN CORPUSCULAR VOLUME: 63.93 fL
  MONOCYTE: 0.33%
  NEUTROPHIL: 4.67%
  NUCLEATED RED BLOOD CELLS: 0 /100WBC
  PLATELET COUNT: 706.67 x10E3/uL
  ALANINE AMINOTRANSFERASE: 46.67 u/L
  ALBUMIN: 3.5 G/DL
  ALKALINE PHOSPHATASE: 373 u/L
  ASPARTATE AMINOTRANSFERASE: 100.67 u/L
  BLOOD UREA NITROGEN: 15.67 mg/dL
  CARBON DIOXIDE: 24.33 mmol/L
  CHLORIDE: 107.33 MEQ/L
  CHOLESTEROL: 63.33 mg/dL
  CREATINE PHOSPHOKINASE: 316.67 u/L
  CREATININE: 0.13 mg/dL
  GLUCOSE: 143 mg/dL
  LACTATE DEHYDROGENASE: 80.33 u/L
  LIPASE: 8 u/L
  PHOSPHORUS: 9.73 mg/dL
  POTASSIUM: 5.2 MEQ/L
  SODIUM: 145.57 MEQ/L
  TOTAL BILIRUBIN: 0.17 mg/dL
  TOTAL PROTEIN: 4.97 G/DL
  URIC ACID: 1.3 mg/dL
[2]
  ABSOLUTE BASOPHIL: 0 CELLS/uL
  ABSOLUTE EOSINOPHIL: 12.67 CELLS/uL
  ABSOLUTE LYMPHOCYTE: 2696.33 CELLS/uL
  ABSOLUTE MONOCYTE: 10 CELLS/uL
  ABSOLUTE SEGMENTED NEUTROPHIL: 47.67 CELLS/uL
  BASOPHIL: 0%
  EOSINOPHIL: 0.33%
  ERYTHROCYTE COUNT: 8.1 x10E6/uL
  HEMATOCRIT: 50%
  HEMOGLOBIN: 19.4 G/DL
  LEUKOCYTE COUNT: 2.77 x10E3/uL
  LYMPHOCYTE: 97.67%
  MEAN CORPUSCULAR HEMOGLOBIN: 24 pg
  MEAN CORPUSCULAR HEMOGLOBIN CONCENTRATION: 38.9 G/DL
  MEAN CORPUSCULAR VOLUME: 61.67 fL
  MONOCYTE: 0.33%
  NEUTROPHIL: 1.67%
  NUCLEATED RED BLOOD CELLS: 0.33 /100WBC
  PLATELET COUNT: 374.33 x10E3/uL
  ALANINE AMINOTRANSFERASE: 34.67 u/L
  ALBUMIN: 3.5 G/DL
  ALKALINE PHOSPHATASE: 152.67 u/L
  ASPARTATE AMINOTRANSFERASE: 232 u/L
  BLOOD UREA NITROGEN: 36.67 mg/dL
  CARBON DIOXIDE: 26.33 mmol/L
  CHLORIDE: 107 MEQ/L
  CHOLESTEROL: 104.67 mg/dL
  CREATINE PHOSPHOKINASE: 2721.33 u/L
  CREATININE: 0.23 mg/dL
  GLUCOSE: 286.33 mg/dL
  LACTATE DEHYDROGENASE: 384.67 u/L
  LIPASE: 10.33 u/L
  PHOSPHORUS: 10.93 mg/dL
  POTASSIUM: 4.87 MEQ/L
  SODIUM: 146.9 MEQ/L
  TOTAL BILIRUBIN: 0.1 mg/dL
  TOTAL PROTEIN: 6.03 G/DL
  URIC ACID: 1.6 mg/dL
[3]
  ABSOLUTE BASOPHIL: 0 CELLS/uL
  ABSOLUTE EOSINOPHIL: 0 CELLS/uL
  ABSOLUTE LYMPHOCYTE: 7048.67 CELLS/uL
  ABSOLUTE MONOCYTE: 0 CELLS/uL
  ABSOLUTE SEGMENTED NEUTROPHIL: 484.67 CELLS/uL
  BASOPHIL: 0%
  EOSINOPHIL: 0%
  ERYTHROCYTE COUNT: 5.03 x10E6/uL
  HEMATOCRIT: 31.87%
  HEMOGLOBIN: 12.73 G/DL
  LEUKOCYTE COUNT: 7.53 x10E3/uL
  LYMPHOCYTE: 93.67%
  MEAN CORPUSCULAR HEMOGLOBIN: 25.37 pg
  MEAN CORPUSCULAR HEMOGLOBIN CONCENTRATION: 39.97 G/DL
  MEAN CORPUSCULAR VOLUME: 63.43 fL
  MONOCYTE: 0%
  NEUTROPHIL: 6.33%
  NUCLEATED RED BLOOD CELLS: 0 /100WBC
  PLATELET COUNT: 1190.67 x10E3/uL
  ALANINE AMINOTRANSFERASE: 55.33 u/L
  ALBUMIN: 4.03 G/DL
  ALKALINE PHOSPHATASE: 332.67 u/L
  ASPARTATE AMINOTRANSFERASE: 110 u/L
  BLOOD UREA NITROGEN: 16.67 mg/dL
  CARBON DIOXIDE: 25 mmol/L
  CHLORIDE: 97.67 MEQ/L
  CHOLESTEROL: 76.67 mg/dL
  CREATINE PHOSPHOKINASE: 485.33 u/L
  CREATININE: 0.14 mg/dL
  GLUCOSE: 175.33 mg/dL
  LACTATE DEHYDROGENASE: 141.67 u/L
  LIPASE: 9 u/L
  PHOSPHORUS: 12.07 mg/dL
  POTASSIUM: 6.4 MEQ/L
  SODIUM: 141.6 MEQ/L
  TOTAL BILIRUBIN: 0.2 mg/dL
  TOTAL PROTEIN: 5.93 G/DL
  URIC ACID: 1.5 mg/dL
[4]
  ABSOLUTE BASOPHIL: 0 CELLS/uL
  ABSOLUTE EOSINOPHIL: 0 CELLS/uL
  ABSOLUTE LYMPHOCYTE: 4224 CELLS/uL
  ABSOLUTE MONOCYTE: 19 CELLS/uL
  ABSOLUTE SEGMENTED NEUTROPHIL: 23.67 CELLS/uL
  BASOPHIL: 0%
  EOSINOPHIL: 0%
  ERYTHROCYTE COUNT: 5.09 x10E6/uL
  HEMATOCRIT: 32.1%
  HEMOGLOBIN: 12.83 G/DL
  LEUKOCYTE COUNT: 4.27 x10E3/uL
  LYMPHOCYTE: 99%
  MEAN CORPUSCULAR HEMOGLOBIN: 25.2 pg
  MEAN CORPUSCULAR HEMOGLOBIN CONCENTRATION: 39.97 G/DL
  MEAN CORPUSCULAR VOLUME: 63.1 fL
  MONOCYTE: 0.33%
  NEUTROPHIL: 0.67%
  NUCLEATED RED BLOOD CELLS: 0.33 /100WBC
  PLATELET COUNT: 699.67 x10E3/uL
  ALANINE AMINOTRANSFERASE: 46.33 u/L
  ALBUMIN: 4.17 G/DL
  ALKALINE PHOSPHATASE: 368 u/L
  ASPARTATE AMINOTRANSFERASE: 127.67 u/L
  BLOOD UREA NITROGEN: 13.33 mg/dL
  CARBON DIOXIDE: 24.67 mmol/L
  CHLORIDE: 104 MEQ/L
  CHOLESTEROL: 70.67 mg/dL
  CREATINE PHOSPHOKINASE: 350.33 u/L
  CREATININE: 0.12 mg/dL
  GLUCOSE: 151.67 mg/dL
  LACTATE DEHYDROGENASE: 93.33 u/L
  LIPASE: 8 u/L
  PHOSPHORUS: 11.03 mg/dL
  POTASSIUM: 6.21 MEQ/L
  SODIUM: 143.67 MEQ/L
  TOTAL BILIRUBIN: 0.1 mg/dL
  TOTAL PROTEIN: 6.03 G/DL
  URIC ACID: 1.63 mg/dL
